# Test results reported in patent US9463174B2, “Pharmaceutical composition for the treatment of type-1 diabetes” (priority 2008, dated 2016).
# Legend:
# INS-1 cells = assay: GABA production and release from insulin-secreting beta-cells (Free Amino Acid Analysis); type: cell-based
# Description: In these in vitro assays using GLP-1-secreting and/or insulin-secreting cells, it was shown that the production and secretion of GLP-1 in the gut-derived cells (STC-1) were modulated by GABA, and the production and release of GABA from the beta-cells were also modulated by GLP-1. The specificity of these assays was determined by including the GABAAR antagonists or GLP-1 receptor antagonist in the assays.
# The Free Amino Acid Analysis was performed on a Waters Acquity UPLC System. The Waters Acquity UPLC system employed consists of a Binary Solvent Manager, a Sample Manager, a TUV Detector and a Waters Acquity UPLC BEH C18 column (2.1×100 mm). Data was collected, stored and processed using Waters Empower 2 Chromatography software. Drying was done using a Tomy CC-181 Centrifugal Concentrator with a Sargent-Welch Model 8821 Vacuum pump. The operational procedures are as following: an aliquot of the sample was transferred into a 6×55 mm glass culture tube and dried under vacuum using a centrifugal evaporator. After drying, the sample was treated with a redrying solution consisting of methanol:water:triethylamine (2:2:1), vortex-mixed and dried under vacuum for 15 minutes. […] The derivatized amino acids were detected at 254 nm.
# GABA concentrations were determined by the Free Amino Acid Analysis. […]
# T1D-prone NOD mice = details: monotherapy, Hadjiyanni I et al 2008; cited from earlier work
substance,measurement,setting,value
"GLP-1: incretin hormone glucagon-like peptide-1, SEQ ID NO: 1",production and release of GABA from the beta-cells,INS-1 cells,modulated
same,efficacy on diabetes onset in T1D-prone NOD mice,T1D-prone NOD mice,only marginally effective
